Experimental data reported in patent publication US20230167070A1, “MODULATORS OF TREX1” (Constellation Pharmaceuticals, Inc., priority 2020, published 2023).

Experiments:
[1] = target: T1, full length human TREX1 (Homo sapiens, UniProt Q9NSU2); experiment: TREX1 Biochemical Assay (fluorescence, dsDNA substrate degradation); conditions: 150 pM TREX1, 60 nM dsDNA substrate, 25 minutes at room temperature
T1 construct: N-terminally His-Tev tagged full length human TREX1; made in house; host or cells: E. coli
T1 sequence (Q9NSU2 1-314): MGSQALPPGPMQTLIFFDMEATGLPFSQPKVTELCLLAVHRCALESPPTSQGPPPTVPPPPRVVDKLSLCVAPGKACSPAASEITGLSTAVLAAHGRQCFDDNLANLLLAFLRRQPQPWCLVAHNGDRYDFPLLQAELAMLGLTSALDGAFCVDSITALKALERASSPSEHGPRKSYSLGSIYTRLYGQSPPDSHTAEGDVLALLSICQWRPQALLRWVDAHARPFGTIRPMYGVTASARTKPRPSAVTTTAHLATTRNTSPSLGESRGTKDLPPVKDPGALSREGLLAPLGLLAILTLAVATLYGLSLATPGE
Method: Degradation of the dsDNA liberates free fluorophore to produce a fluorescent signal. Specifically, 7.5 μL of N-terminally His-Tev tagged full length human TREX1 (expressed in E. coli and purified in house) in reaction buffer (50 mM Tris (pH 7.4), 150 mM NaCl, 2 mM DTT, 0.1 mg/mL BSA, 0.01% (v/v) Tween-20 and 100 mM MgCl2) was added to a 384-well Black ProxiPlate Plus (Perkin Elmer) which already contained compound (150 nL) at varying concentrations as a 10 point dose-response in DMSO. To this was added 7.5 μL of dsDNA substrate (Strand A: 5′ TEX615/GCT AGG CAG 3′; Strand B: 5′ CTG CCT AGC/IAbRQSp (Integrated DNA Technologies)) in reaction buffer. Final concentrations were 150 pM TREX1, 60 nM dsDNA substrate in reaction buffer with 1.0% DMSO (v/v). After 25 minutes at room temperature, reactions were quenched by the addition of 5 μL of stop buffer (same as reaction buffer plus 200 mM EDTA). Final concentrations in the quenched reaction were 112.5 pM TREX1, 45 nM DNA and 50 mM EDTA in a volume of 20 μL. After a 5-minute incubation at room temperature, plates were read in a laser sourced Envision (Perkin-Elmer), measuring fluorescence at 615 nm following excitation w/570 nm light. IC50 values were calculated by comparing the measured fluorescence at 615 nm ratio relative to control wells pre-quenched w/stop buffer (100% inhibition) and no inhibitor (0% inhibition) controls as using non-linear least square four parameter fits and either Genedata or GraphPad Prism (GraphPad Software, Inc.).

[2] = target: T2, human TREX2 (residues M44-A279) (Homo sapiens, UniProt Q9BQ50); experiment: TREX2 Biochemical Assay (fluorescence, dsDNA substrate degradation); conditions: 2.5 nM TREX2, 60 nM dsDNA substrate, 25 minutes at room temperature
T2 construct: human TREX2 (residues M44-A279, expressed in E. coli); made in house; host or cells: E. coli
T2 sequence (Q9BQ50 44-279 isoform Q9BQ50-1): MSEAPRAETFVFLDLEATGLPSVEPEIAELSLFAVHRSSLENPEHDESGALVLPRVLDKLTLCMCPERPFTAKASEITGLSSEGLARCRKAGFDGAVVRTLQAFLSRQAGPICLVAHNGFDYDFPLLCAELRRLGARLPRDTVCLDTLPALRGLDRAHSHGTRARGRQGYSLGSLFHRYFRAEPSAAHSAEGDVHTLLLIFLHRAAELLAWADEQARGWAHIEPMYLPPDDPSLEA
Method: Degradation of the dsDNA liberates free fluorophore to produce a fluorescent signal. Specifically, 7.5 μL of N-terminally His-Tev tagged human TREX2 (residues M44-A279, expressed in E. coli and purified in house) in reaction buffer (50 mM Tris (pH 7.4), 150 mM NaCl, 2 mM DTT, 0.1 mg/mL BSA, 0.01% (v/v) Tween-20 and 100 mM MgCl2) was added to a 384-well Black ProxiPlate Plus (Perkin Elmer) which already contained compound (150 nL) at varying concentrations as a 10 point dose-response in DMSO. To this was added 7.5 μL of dsDNA substrate (Strand A: 5′ TEX615/GCT AGG CAG 3′; Strand B: 5′ CTG CCT AGC/IAbRQSp (IDT)) in reaction buffer. Final concentrations were 2.5 nM TREX2, 60 nM dsDNA substrate in reaction buffer with 1.0% DMSO (v/v). After 25 minutes at room temperature, reactions were quenched by the addition of 5 μL of stop buffer (same as reaction buffer plus 200 mM EDTA). Final concentrations in the quenched reaction mixture were […] TREX2, 45 nM DNA and 50 mM EDTA in a volume of 20 μL. After a 5-minute incubation at room temperature, plates were read in a laser sourced Envision (Perkin-Elmer), measuring fluorescence at 615 nm following excitation w/570 nm light. IC50 values were calculated by comparing the measured fluorescence at 615 nm ratio relative to control wells pre-quenched w/stop buffer (100% inhibition) and no inhibitor (0% inhibition) controls as using non-linear least square four parameter fits and either Genedata or GraphPad Prism (GraphPad Software, Inc.).

| IC50 [1] | IC50 [2] | SMILES |
| --- | --- | --- |
| 100 to 1000 nM | < 1 µM | CN(c1nc(C(=O)Nc2cc(F)cc(F)c2)c(O)c(=O)n1C)C(c1ccccc1)c1ccccc1 [Example 21, 2-(benzhydryl(methyl)amino)-N-(3,5-difluorophenyl)-5-hydroxy-1-methyl-6-oxo-1,6-dihydropyrimidine-4-carboxamide] |
| 100 to 1000 nM | < 1 µM | CN(c1nc(C(=O)Nc2ccc(F)cc2)c(O)c(=O)n1C)C(c1ccccc1)c1ccccc1 [Example 18, 2-(benzhydryl(methyl)amino)-N-(4-fluorophenyl)-5-hydroxy-1-methyl-6-oxo-1,6-dihydropyrimidine-4-carboxamide] |
| 1000 to 10000 nM | 1 to 10 µM | CN(c1nc(C(=O)Nc2cncnc2)c(O)c(=O)n1C)C(c1ccccc1)c1ccccc1 [Example 26, 2-(benzhydryl(methyl)amino)-5-hydroxy-1-methyl-6-oxo-N-(pyrimidin-5-yl)-1,6-dihydropyrimidine-4-carboxamide] |
| 1000 to 10000 nM | 1 to 10 µM | C=CCNC(=O)c1nc(N(C)C(c2ccccc2)c2ccccc2)n(C)c(=O)c1O [Example 8, N-allyl-2-(benzhydryl(methyl)amino)-5-hydroxy-1-methyl-6-oxo-1,6-dihydropyrimidine-4-carboxamide] |
| 1000 to 10000 nM | 1 to 10 µM | CN(c1nc(C(=O)Nc2cnnn2C)c(O)c(=O)n1C)C(c1ccccc1)c1ccccc1 [Example 34, 2-(benzhydryl(methyl)amino)-5-hydroxy-1-methyl-N-(1-methyl-1H-1,2,3-triazol-5-yl)-6-oxo-1,6-dihydropyrimidine-4-carboxamide] |
| > 10000 nM | 10 to 100 µM | CN(c1nc(C(=O)Nc2ccc(C(F)(F)F)cc2)c(O)c(=O)n1C)C(c1ccccc1)c1ccccc1 [Example 28, 2-(benzhydryl(methyl)amino)-5-hydroxy-1-methyl-6-oxo-N-(4-(trifluoromethyl)phenyl)-1,6-dihydropyrimidine-4-carboxamide] |
| 1000 to 10000 nM | 10 to 100 µM | CN(c1nc(C(=O)Nc2nnco2)c(O)c(=O)n1C)C(c1ccccc1)c1ccccc1 [Example 38, 2-(benzhydryl(methyl)amino)-5-hydroxy-1-methyl-N-(1,3,4-oxadiazol-2-yl)-6-oxo-1,6-dihydropyrimidine-4-carboxamide] |
| 100 to 1000 nM | 10 to 100 µM | CN(c1nc(C(=O)Nc2ccon2)c(O)c(=O)n1C)C(c1ccccc1)c1ccccc1 [Example 39, 2-(benzhydryl(methyl)amino)-5-hydroxy-N-(isoxazol-3-yl)-1-methyl-6-oxo-1,6-dihydropyrimidine-4-carboxamide] |
| < 100 nM | < 1 µM | CN(c1nc(C(=O)Nc2cccc(F)c2F)c(O)c(=O)n1C)C(c1ccccc1)c1ccccc1 [Example 22, 2-(benzhydryl(methyl)amino)-N-(2,3-difluorophenyl)-5-hydroxy-1-methyl-6-oxo-1,6-dihydropyrimidine-4-carboxamide] |
| 1000 to 10000 nM | 10 to 100 µM | CCNC(=O)c1nc(N(C)C(c2ccccc2)c2ccccc2)n(C)c(=O)c1O [Example 10, 2-(benzhydryl(methyl)amino)-N-ethyl-5-hydroxy-1-methyl-6-oxo-1,6-dihydropyrimidine-4-carboxamide] |

The next lines start with the compound.

| SMILES | IC50 [1] | IC50 [2] |
| --- | --- | --- |
| CN(c1nc(C(=O)N[C@@H]2CCOC2)c(O)c(=O)n1C)C(c1ccccc1)c1ccccc1 [Example 4, (R)-2-(benzhydryl(methyl)amino)-5-hydroxy-1-methyl-6-oxo-N-(tetrahydrofuran-3-yl)-1,6-dihydropyrimidine-4-carboxamide] | > 10000 nM | 10 to 100 µM |
| Cc1onc(NC(=O)c2nc(N(C)C(c3ccccc3)c3ccccc3)n(C)c(=O)c2O)c1C [Example 37, 2-(benzhydryl(methyl)amino)-N-(4,5-dimethylisoxazol-3-yl)-5-hydroxy-1-methyl-6-oxo-1,6-dihydropyrimidine-4-carboxamide] | 1000 to 10000 nM | 10 to 100 µM |
| COCCNC(=O)c1nc(N(C)C(c2ccccc2)c2ccccc2)n(C)c(=O)c1O [Example 11, 2-(benzhydryl(methyl)amino)-5-hydroxy-N-(2-methoxyethyl)-1-methyl-6-oxo-1,6-dihydropyrimidine-4-carboxamide] | > 10000 nM | 10 to 100 µM |
| CN(c1nc(C(=O)N[C@H]2CCOC2)c(O)c(=O)n1C)C(c1ccccc1)c1ccccc1 [Example 3, (S)-2-(benzhydryl(methyl)amino)-5-hydroxy-1-methyl-6-oxo-N-(tetrahydrofuran-3-yl)-1,6-dihydropyrimidine-4-carboxamide] | > 10000 nM | 10 to 100 µM |
| CN(c1nc(C(=O)NC2CCC2)c(O)c(=O)n1C)C(c1ccccc1)c1ccccc1 [Example 7, 2-(benzhydryl(methyl)amino)-N-cyclobutyl-5-hydroxy-1-methyl-6-oxo-1,6-dihydropyrimidine-4-carboxamide] | 1000 to 10000 nM | 10 to 100 µM |
| CN(c1nc(C(=O)NC2CC=CC2)c(O)c(=O)n1C)C(c1ccccc1)c1ccccc1 [Example 6, 2-(benzhydryl(methyl)amino)-N-(cyclopent-3-en-1-yl)-5-hydroxy-1-methyl-6-oxo-1,6-dihydropyrimidine-4-carboxamide] | 1000 to 10000 nM | 10 to 100 µM |
| Cc1noc(C)c1NC(=O)c1nc(N(C)C(c2ccccc2)c2ccccc2)n(C)c(=O)c1O [Example 33, 2-(benzhydryl(methyl)amino)-N-(3,5-dimethylisoxazol-4-yl)-5-hydroxy-1-methyl-6-oxo-1,6-dihydropyrimidine-4-carboxamide] | 100 to 1000 nM | 10 to 100 µM |
| CN(c1nc(C(=O)NC2CC(F)(F)C2)c(O)c(=O)n1C)C(c1ccccc1)c1ccccc1 [Example 2, 2-(benzhydryl(methyl)amino)-N-(3,3-difluorocyclobutyl)-5-hydroxy-1-methyl-6-oxo-1,6-dihydropyrimidine-4-carboxamide] | 1000 to 10000 nM | 10 to 100 µM |
| C=C(C)CNC(=O)c1nc(N(C)C(c2ccccc2)c2ccccc2)n(C)c(=O)c1O [Example 5, 2-(benzhydryl(methyl)amino)-5-hydroxy-1-methyl-N-(2-methylallyl)-6-oxo-1,6-dihydropyrimidine-4-carboxamide] | 1000 to 10000 nM | 10 to 100 µM |
